Each block holds one compound with its values, some of them ahead of it.
System: NCI-H510 multicellular tumor spheroid growth, % test/control
Test: Anticancer human tumor NCI-H510 cell line growth inhibition [Asc];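 note: spheroids exposed to agents for 7 days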;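 for viability, T/C: 100% = DMSO vehicle control wells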
Conditions: for IC50: curve of first compound; for viability, T/C: stronger effect = lower value
Procedure: Multicellular complex tumor spheroid response to apoptosis pathway targeting inhibitors Alrizomadlin, Pelcitoclax, and Dasminapant in combination with a variety of drugs and investigational agents in selected tumor cell lines
The MDM2 inhibitor alrizomadlin, the Bcl-2/Bcl-xL inhibitor pelcitoclax, and the IAPs inhibitor dasminapant were evaluated both individually and in combination with standard of care and investigational anticancer small molecules within a complex spheroid model of solid tumors. . Complex spheroids include a stromal component modeled by human endothelial cells (HUVEC) and fibroblasts modeled by human mesenchymal stem cells (MSCs). The concentration ranges selected for each drug and investigational agent were based upon clinically achievable concentrations if the clinical Cmax of the agent was known.
Compounds. The drugs and investigational agents: alrizomadlin (APG-115; NSC831270), pelcitoclax (APG-1252; NSC835773), dasminapant (APG-1387;NSC834197), TAK-243 (NSC785004), copanlisib (NSC809693), olaparib (NSC753686), talazoparib (NSC767125), cobimetinib (NSC 768068), eltanexor (KPT-8602, NSC 794443), abemaciclib (NSC 768073), sotorasib (NSC818433), adagrasib (NSC 831453), MRTX-1133 (NSC 836407), Iadademestat (ORY1001, NSC 806812), and RMC-4630 (NSC839698), were obtained from the NCI Developmental Therapeutics Program Chemical Repository. The FDA-approved anticancer drug set is available from the Developmental Therapeutics Program at https://dtp.cancer.gov/organization/dscb/obtaining/available plates.htm. […] The stock solutions were prepared in dimethyl sulfoxide (DMSO, Sigma-Aldrich, St. Louis, MO, cat. D2650) at 800-fold the tested concentration and stored at -70 degrees C prior to their use. All drugs and investigational agents were tested over a range starting from a high concentration at or near the clinical Cmax and decreasing in half-log increments. If the clinical Cmax for an agent had not been determined, the highest concentration tested was 10 microM.
The patient-derived cancer (PDC) cell lines include five colon adenocarcinomas: 186277-243-T-J2-PDC, 616215-338-R-J1-PDC, 439559-082-T-J2-PDC, 463943-066-T-J2-PDC, and 519858-162-T-J1-PDC; three pancreatic carcinomas: 323965-272-R-J2-PDC, 521955-158-R6-J3-PDC, and 521955-158-R2-J5-PDC; two uterine sarcomas: 327498-152-R-J2-PDC and 993429-296-R-J1-PDC; two rhabdomyosarcomas: 755483-174-R-J1-PDC and 772245-204-R-J1-PDC; two soft tissue sarcomas: 126254-015-R-J1-PDC and 494315-158-R-J1-PDC; two malignant fibrous histiocytomas: 317291-083-R-J1-PDC and 596521-263-R-J1-PDC; two breast carcinomas: 171881-019-R-J1-PDC and 885512-296-R-J2-PDC; and one ovarian carcinoma: 6556581-035-R-J-PDC were obtained from the NCI PDMR, (https://pdmr.cancer.gov). The established cell lines HSSY-2 synovial sarcoma (RRID:CVCL 8719), SYO-1 synovial sarcoma (RRID:CVCL_7146), MPNST malignant peripheral neural sheath tumor were obtained from the Sloan Kettering Institute. The following established cell lines were purchased from the American Type Culture Collection (ATCC, Manassas, VA), Sor the received from the NCI repository:, PANC-1 pancreatic carcinoma (CRL-1469, RRID:CVCL_0480), OVCAR-5 ovarian carcinoma (RRID:CVCL_1628), OVCAR-8 ovarian carcinoma (RRID:CVCL_1629), , MCF-7 breast carcinoma (CRL-12584, RRID:CVCL_0031), MDA-MB-231 breast carcinoma (CRL-12532, RRID:CVCL_0062), NCI-H1876 small cell lung carcinoma (CRL-5902, RRID:CVCL_1503), NCI-H510A small cell lung carcinoma (HTB-184, RRID:CVCL_1565), NCI-H1417 (CRL-5869, RRID:CVCL_1469), and NCI-H196 small cell lung carcinoma (CRL-5823, RRID:CVCL_1509). Dr. Peter Houghton (Greehey Children's Cancer Research Institute, University of Texas Health Science Center, San Antonio, TX) provided Rh-18 rhabdomyosarcoma (RRID:CVCL_1659). Pooled donor human umbilical vein endothelial cells (HUVEC, Lonza, cat. CC-2519) and human mesenchymal stem cells (hMSC, Lonza, cat. PT-2501) were purchased from Lonza (Walkersville, MD).
Cell Culture. […]

IC50 (second compound 0.03 µM): > 0.1 µM | IC50 (second compound 0.0949 µM): > 0.1 µM | IC50 (second compound 0.3 µM): > 0.1 µM | IC50 (second compound 0.949 µM): > 0.1 µM | IC50 (second compound 3 µM): 0.0848 µM
SMILES: NC1CCC(NC2CC2c2ccccc2)CC1 (stereo not given) + CCN1C(C(=O)NC23CCC(C(=O)O)(CC2)CC3)C(c2cccc(Cl)c2F)C2(C(=O)Nc3cc(Cl)ccc32)C12CCCCC2
viability, T/C (second compound 0.03 µM, first compound 0.000316 µM): 85.9% | viability, T/C (second compound 0.03 µM, first compound 0.001 µM): 84.4% | viability, T/C (second compound 0.03 µM, first compound 0.00316 µM): 82.5% | viability, T/C (second compound 0.03 µM, first compound 0.01 µM): 81.9% | viability, T/C (second compound 0.03 µM, first compound 0.0316 µM): 92.4% | viability, T/C (second compound 0.03 µM, first compound 0.1 µM): 91.9% | viability, T/C (second compound 0.0949 µM, first compound 0.000316 µM): 101% | viability, T/C (second compound 0.0949 µM, first compound 0.001 µM): 71.6% | viability, T/C (second compound 0.0949 µM, first compound 0.00316 µM): 77.5% | viability, T/C (second compound 0.0949 µM, first compound 0.01 µM): 78.7% | viability, T/C (second compound 0.0949 µM, first compound 0.0316 µM): 60.6% | viability, T/C (second compound 0.0949 µM, first compound 0.1 µM): 71.3% | viability, T/C (second compound 0.3 µM, first compound 0.000316 µM): 92.4% | viability, T/C (second compound 0.3 µM, first compound 0.001 µM): 85.8% | viability, T/C (second compound 0.3 µM, first compound 0.00316 µM): 98.3% | viability, T/C (second compound 0.3 µM, first compound 0.01 µM): 95.8% | viability, T/C (second compound 0.3 µM, first compound 0.0316 µM): 73.3% | viability, T/C (second compound 0.3 µM, first compound 0.1 µM): 55.8% | viability, T/C (second compound 0.949 µM, first compound 0.000316 µM): 83.8% | viability, T/C (second compound 0.949 µM, first compound 0.001 µM): 92.9% | viability, T/C (second compound 0.949 µM, first compound 0.00316 µM): 90.6% | viability, T/C (second compound 0.949 µM, first compound 0.01 µM): 80.8% | viability, T/C (second compound 0.949 µM, first compound 0.0316 µM): 72.3% | viability, T/C (second compound 0.949 µM, first compound 0.1 µM): 60.5% | viability, T/C (second compound 3 µM, first compound 0.000316 µM): 106% | viability, T/C (second compound 3 µM, first compound 0.001 µM): 82.3% | viability, T/C (second compound 3 µM, first compound 0.00316 µM): 79.8% | viability, T/C (second compound 3 µM, first compound 0.01 µM): 75.2% | viability, T/C (second compound 3 µM, first compound 0.0316 µM): 60% | viability, T/C (second compound 3 µM, first compound 0.1 µM): 46.6%

IC50 (second compound 0.1 µM): > 1 µM | IC50 (second compound 0.316 µM): > 1 µM | IC50 (second compound 1 µM): > 1 µM | IC50 (second compound 3.16 µM): > 1 µM | IC50 (second compound 10 µM): 0.231 µM
SMILES: COc1c(OCCCN2CCOCC2)ccc2c3n(c(=NC(=O)c4cnc(N)nc4)nc12)CCN3 + Cc1c(S(C)(=O)=O)c(-c2cc(F)cc(N3CCN(c4ccc(NS(=O)(=O)c5ccc(NC(CCN6CCC(C(=O)OCCCP(=O)(O)O)CC6)CSc6ccccc6)c(S(=O)(=O)C(F)(F)F)c5)cc4)CC3)c2)c(-c2ccc(Cl)cc2)n1C(C)C
viability, T/C (second compound 0.1 µM, first compound 0.00316 µM): 112% | viability, T/C (second compound 0.1 µM, first compound 0.01 µM): 106% | viability, T/C (second compound 0.1 µM, first compound 0.0316 µM): 88.9% | viability, T/C (second compound 0.1 µM, first compound 0.1 µM): 89.3% | viability, T/C (second compound 0.1 µM, first compound 0.316 µM): 96.4% | viability, T/C (second compound 0.1 µM, first compound 1 µM): 84.3% | viability, T/C (second compound 0.316 µM, first compound 0.00316 µM): 102% | viability, T/C (second compound 0.316 µM, first compound 0.01 µM): 99.6% | viability, T/C (second compound 0.316 µM, first compound 0.0316 µM): 70.3% | viability, T/C (second compound 0.316 µM, first compound 0.1 µM): 75% | viability, T/C (second compound 0.316 µM, first compound 0.316 µM): 89.1% | viability, T/C (second compound 0.316 µM, first compound 1 µM): 53.6% | viability, T/C (second compound 1 µM, first compound 0.00316 µM): 99.8% | viability, T/C (second compound 1 µM, first compound 0.01 µM): 98.1% | viability, T/C (second compound 1 µM, first compound 0.0316 µM): 106% | viability, T/C (second compound 1 µM, first compound 0.1 µM): 91.2% | viability, T/C (second compound 1 µM, first compound 0.316 µM): 67.5% | viability, T/C (second compound 1 µM, first compound 1 µM): 86.1% | viability, T/C (second compound 3.16 µM, first compound 0.00316 µM): 89.4% | viability, T/C (second compound 3.16 µM, first compound 0.01 µM): 91.6% | viability, T/C (second compound 3.16 µM, first compound 0.0316 µM): 82.6% | viability, T/C (second compound 3.16 µM, first compound 0.1 µM): 80% | viability, T/C (second compound 3.16 µM, first compound 0.316 µM): 82.6% | viability, T/C (second compound 3.16 µM, first compound 1 µM): 63.8% | viability, T/C (second compound 10 µM, first compound 0.00316 µM): 66% | viability, T/C (second compound 10 µM, first compound 0.01 µM): 98.4% | viability, T/C (second compound 10 µM, first compound 0.0316 µM): 70.9% | viability, T/C (second compound 10 µM, first compound 0.1 µM): 96.3% | viability, T/C (second compound 10 µM, first compound 0.316 µM): 37.6% | viability, T/C (second compound 10 µM, first compound 1 µM): 32.2%
